# What was measured:
# [1] = system: day 16 larvae of the Indian Meal Moth, Plodia Interpunctella; assay: Effect of methoprene at low concentrations: day 16 larvae on treated paper (behavior, webbing, survival over 19 days); type: in vivo
# Experimental: An experiment was set up to determine the effectiveness of methoprene at very low concentrations on day 16 larvae of the Indian Meal Moth, Plodia Interpunctella. The concentrations tested ranged from the control at 0 wppm to 1000 wppm increasing by increments of 10×. Ten larvae per sample were added to the treated paper and exposed throughout the experiment in an incubator (Precision Model No. 815) at 80° F. (27° C.) and at a relative humidity of 60 percent. Behavior, webbing characteristics and survival rates were observed over 19 days.
# The coating formulation components (excluding methoprene) and preparation procedure are described in Table 1, below.
# As the Benzophenone was added to the mixture in step 7, above, the mixture was stirred in a mixer at 1500 rpm and at a temperature of 70° F. (21° C.) until the benzophenone was dissolved. As the methoprene was added to the mixture in step 8, above, the mixture was stirred in a mixer at 1500 rpm and at a temperature of 89° F. (32° C.).
# [2] = system: 16 day Indian Meal Moth larvae; assay: Exposure of 16 day larvae to methoprene for varying periods of time; type: in vivo, Plodia Interpunctella; conditions: 1000 wppm MP
# Experimental: An experiment was set up to determine the effect of exposing 16 day Indian Meal Moth larvae to methoprene for varying periods of time. The treatment levels tested were control at 0 wppm methoprene and 1000 wppm methoprene. Five larvae (3 females, 2 males) per sample were added to paper treated with the coating composition described in Example 1. The larvae were exposed to the samples for different amount of time. The times of exposure were 0 hrs., 20 min., 1 hr., 2 hrs., 4 hrs., 8 hrs., and 24 hrs. After larvae were exposed for the set amount of time, they were placed in an incubator (Precision Model No. 815) at 80° F. (27° C.) and at a relative humidity of 60 percent, where they were allowed to pupate, become adults, and reproduce. Observations were obtained throughout a 16 day period. From when adults hatched, the number of adults were counted and averaged over the remainder of the experiment. The number of new eggs were also counted and the average number of eggs per adult was calculated. Generally, egg production decreased as treatment levels increased.
# [3] = system: Indian Meal Moth adults; assay: Adult exposure to liquid methoprene in a UV coating: egg production and viability; type: in vivo, Plodia Interpunctella; conditions: for Total Percent Reduction: compared to the control; for Total No. of Eggs: eggs collected over 8 days; for Total No. of Viable Eggs: eggs that hatched
# Experimental: An experiment was set up to determine how egg production would be affected when Indian Meal Moth adults were exposed to liquid methoprene in a UV coating. Adults were allowed to emerge into jars lined with treated paper. The treatment levels tested were a control at 0 wppm to 1000 wppm increasing by increments of 10×. A combination treatment of liquid methoprene at 1000 wppm and 1 weight percent diatomaceous earth was also tested. The eggs produced fell to a treated surface before being collected and placed into rearing food. Observations and egg collections were taken over a […] period.
# The adults came from stock insects and the number exposed per treatment was not predetermined. The total number of eggs represents all eggs per treatment collected over 8 days. The total number of viable eggs represents the number of eggs that hatched. These larvae were allowed to feed for 14 days before counting.
smiles,measurement,setting,value
"COC(C)(C)CCCC(C)C/C=C/C(C)=C/C(=O)OC(C)C (centres unmarked) [methoprene, isopropyl-(2E, 4E)-11-methoxy-3,7,11-trimethyl-2,4-dodecadienoate]",SURVIVAL RATE,"[1]; 1 wppm methoprene in coating, day 4",8 number of larvae surviving out of 10 larvae
same,SURVIVAL RATE,"[1]; 1 wppm methoprene in coating, day 7",7 number of larvae surviving out of 10 larvae
same,SURVIVAL RATE,"[1]; 1 wppm methoprene in coating, day 11",6 number of larvae surviving out of 10 larvae
same,SURVIVAL RATE,"[1]; 1 wppm methoprene in coating, day 13",5 number of larvae surviving out of 10 larvae
same,SURVIVAL RATE,"[1]; 1 wppm methoprene in coating, day 19",1 number of larvae surviving out of 10 larvae
same,SURVIVAL RATE,"[1]; 10 wppm methoprene in coating, day 4",8 number of larvae surviving out of 10 larvae
same,SURVIVAL RATE,"[1]; 10 wppm methoprene in coating, day 7",8 number of larvae surviving out of 10 larvae
same,SURVIVAL RATE,"[1]; 10 wppm methoprene in coating, day 11",7 number of larvae surviving out of 10 larvae
same,SURVIVAL RATE,"[1]; 10 wppm methoprene in coating, day 13",7 number of larvae surviving out of 10 larvae
same,SURVIVAL RATE,"[1]; 10 wppm methoprene in coating, day 19",2 number of larvae surviving out of 10 larvae
same,SURVIVAL RATE,"[1]; 100 wppm methoprene in coating, day 4",6 number of larvae surviving out of 10 larvae
same,SURVIVAL RATE,"[1]; 100 wppm methoprene in coating, day 7",4 number of larvae surviving out of 10 larvae
same,SURVIVAL RATE,"[1]; 100 wppm methoprene in coating, day 11",1 number of larvae surviving out of 10 larvae
same,SURVIVAL RATE,"[1]; 100 wppm methoprene in coating, day 13",1 number of larvae surviving out of 10 larvae
same,SURVIVAL RATE,"[1]; 100 wppm methoprene in coating, day 19",1 number of larvae surviving out of 10 larvae
same,SURVIVAL RATE,"[1]; 1000 wppm methoprene in coating, day 4",7 number of larvae surviving out of 10 larvae
same,SURVIVAL RATE,"[1]; 1000 wppm methoprene in coating, day 7",5 number of larvae surviving out of 10 larvae
same,SURVIVAL RATE,"[1]; 1000 wppm methoprene in coating, day 11",3 number of larvae surviving out of 10 larvae
same,SURVIVAL RATE,"[1]; 1000 wppm methoprene in coating, day 13",3 number of larvae surviving out of 10 larvae
same,SURVIVAL RATE,"[1]; 1000 wppm methoprene in coating, day 19",0 number of larvae surviving out of 10 larvae
same,Behavior,"[1]; exposed larvae, as early as day 4 of the testing period, increased nipping and cannibalism",showed signs of aggression
same,Webbing characteristics,[1]; larvae exposed to 1 wppm methoprene,slightly thicker throughout the dish than the control
same,Webbing characteristics,[1]; larvae exposed to 10 wppm methoprene,"thicker, more centralized webbing"
same,Webbing characteristics,"[1]; larvae exposed to 10 wppm methoprene (second mention, compared with the 10 wppm sample)",dense and more centralized than the 10 wppm methoprene sample
same,Webbing characteristics,[1]; larvae exposed to 1000 wppm methoprene,completely centralized mound of webbing
same,survival rate compared to the control sample,[1]; treatment levels as low as 1 wppm,significant decrease in survival rate
same,Average No. of Adults/Day,[2]; time exposed 20 min.,10
same,Average No. of Eggs/Adult,[2]; time exposed 20 min.,34
same,Average No. of Adults/Day,[2]; time exposed 1 hr.,12
same,Average No. of Eggs/Adult,[2]; time exposed 1 hr.,30
same,Average No. of Adults/Day,[2]; time exposed 2 hrs.,12
same,Average No. of Eggs/Adult,[2]; time exposed 2 hrs.,19
same,Average No. of Adults/Day,[2]; time exposed 4 hrs.,10
same,Average No. of Eggs/Adult,[2]; time exposed 4 hrs.,25
same,Average No. of Adults/Day,[2]; time exposed 8 hrs.,9
same,Average No. of Eggs/Adult,[2]; time exposed 8 hrs.,17
same,Average No. of Adults/Day,[2]; time exposed 24 hrs.,7
same,Average No. of Eggs/Adult,[2]; time exposed 24 hrs.,9
same,Percent Viable Eggs,[3]; 10 wppm MP,7.5%
same,Total Percent Reduction,[3]; 10 wppm MP,85.6%
same,Total No. of Eggs,[3]; 10 wppm MP,1430
same,Total No. of Viable Eggs,[3]; 10 wppm MP,108
same,Percent Viable Eggs,[3]; 100 wppm MP,18%
same,Total Percent Reduction,[3]; 100 wppm MP,65.4%
same,Total No. of Eggs,[3]; 100 wppm MP,1285
same,Total No. of Viable Eggs,[3]; 100 wppm MP,234
same,Percent Viable Eggs,[3]; 1000 wppm MP,36%
same,Total Percent Reduction,[3]; 1000 wppm MP,30.8%
same,Total No. of Eggs,[3]; 1000 wppm MP,1190
same,Total No. of Viable Eggs,[3]; 1000 wppm MP,432

# Reference: US7250396B2, “Juvenile hormone compositions and methods for making same” (priority 2003, dated 2007)
